Earlier results, collected in patent publication US20150104528A1, “TREATMENT FOR DEPRESSION AND OTHER MENTAL CONDITIONS WITH SYNTHETIC ISOTOPE-MODIFIED LITHIUM” (priority 2013, published 2015).

Tested on: female mother rats
Conditions: female mother rats fed the substance; same dosage level for both groups

In the case of `[6Li]` [lithium-6], the “state of alertness compared to control rats fed a placebo” value is given as “very high”.
